Experiment [1] has as its target T1, Bcl-xL (GST-Bcl-xL) (Homo sapiens, UniProt Q07817). Put plainly: TR-FRET binding assay, competition with F-Bak for the Bcl-xL binding site. The conditions noted are these: values listed in the order of Table 1, read-out: TR-FRET assay results (Ki), Bcl-xL. On the technique in general: TR-FRET usually uses a lanthanide donor and a delayed reading to cut background.

Experiment [2] concerns the target T1, Bcl-xL (GST-Bcl-xL). Put plainly: AlphaScreen Bcl-xL binding assay, competition with biotinylated Bim peptide. Further details: made in house. The conditions noted are these: values listed in the order of Table 1; read-out: Alphascreen results (IC50) against the Bcl-xL protein. The source says: The measurement of competition of compounds of the invention with Bim26-mer for a Bcl-2 family protein binding site using an Alpha Screen Bcl-xL binding assay:
The BH3 proteins AlphaScreen™ assay was used to identify active small molecules Bcl-2 family protein screen, e.g., Bcl-xL, hmMcl-1 screen.
The beads come in close proximity when the protein and the peptides interact. Donor beads contain a photosensitiser that converts oxygen to an excited form of O2 at an excitation of 680 nm. Energy is transformed from the singlet oxygen and reacts with chemiluminescers on the acceptor bead, resulting in light emission at 520-620 nm. […] With this information, the IC50 of each compound was calculated
GST-Bcl-xL, GST-hmMcl-1 and biotinylated GST proteins were prepared in-house and were stored as stock solutions at −80° C. The biotinylated-Bak, and biotinylated-Bim peptides were purchased from Auspep and were stored as 500 μM stock solutions in 100% DMSO at −80° C. […] DMSO was purchased from AnalaR.
Compounds of the invention were prepared as 10 mM stocks with 100% DMSO on the day prior to performing the assay. […] To achieve a final compound concentration of 1 μM, in a separate matrical plate, 28 μL of 100% DMSO and 2 μL of 10 mM compound was added to a well, mixed well, 2 μL of this solution was taken and added to 38 μL of 100% DMSO. 20 μL of this solution was added to the test matrical plate. Several control compounds were included in the test plates. For the control wells 15 μL 100% DMSO only was added to the appropriate wells of each plate. The compound plates were then serially diluted 2 fold using the MiniTrak. Once titrations were complete, the compound plate was immediately covered with a foil seal to prevent evaporation.
The assay and bead buffers were prepared fresh. Each titrated compound plate was assayed in duplicate. The following volumes were sufficient to run 12 Proxiplates (4 assay plates run in duplicate in each of Bclxl, hmMcl and counter assays)
Protein and Peptide Preparation; and Assay Performance • 1. The assay and bead buffers were used to prepare the acceptor and donor solutions. ALPHASCREEN™ beads are light sensitive and therefore prepared in a darkened room. 2.5 μL of beads were added per 1 mL of buffer. • 2. The volume of protein or peptide to add was calculated using the following formula:
V2=Volume of stock protein/Peptide to add to Acceptor/Donor solution • 3. The assay components were prepared as separate Acceptor and Donor Solutions. The Acceptor Solution contained Acceptor beads and target protein, while the Donor Solution contained Donor beads and biotinylated peptide.
• 4. After the solutions were prepared, they were left to incubate for 30 minutes at room temperature to allow the beads to bind to the protein and the peptide. • 5. 50 μL of Bcl-xL solution, 50 μL of hmMcl-1 solution and 50 μL of biotinylated-GST were added into separate deep wells on an assay plate. A control 50 μL Assay/Bead buffer was added separate well plates (no protein). • 6. 50 μL of Bim solution and 50 μL of Bak solution were added into separate deep well plates. • 7. Transfer 0.3 μL it of sample from the compound plate into each assay plate. • 8. Incubated for 30 mins at RT, then add 5 μL of the Donor solution. After addition of the Donor solution, tapped plates gently and sealed individually with adhesive film. • 9.
The percent inhibition was calculated using the following equation:
[formula] • x=RFU obtained after compound treatment • μ^−=RFU obtained for the negative controls (no protein controls) • μ^+=RFU obtained for the positive controls (DMSO vehicle controls)

Structures are written as SMILES.

What is called Ki is the dissociation constant of the complex between target and ligand, obtained from inhibition or displacement. As a reminder, the IC50 is the point on the concentration scale where inhibition reaches its midpoint.

T1 sequence (Q07817 whole entry, species assumed): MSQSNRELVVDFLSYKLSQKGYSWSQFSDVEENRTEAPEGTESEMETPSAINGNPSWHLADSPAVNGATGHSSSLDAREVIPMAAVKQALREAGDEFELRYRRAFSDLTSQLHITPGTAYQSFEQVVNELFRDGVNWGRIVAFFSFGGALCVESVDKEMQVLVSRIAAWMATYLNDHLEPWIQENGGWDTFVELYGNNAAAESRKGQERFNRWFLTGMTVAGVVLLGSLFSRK

With `NCc1ccc(OCCCc2sc(N3CCc4cccc(C(=O)Nc5nc6ccccc6s5)c4C3)nc2C(=O)O)cc1` [Compound 141, 5-(3-(4-(aminomethyl)phenoxy)propyl)-2-(8-(benzo[d]thiazol-2-ylcarbamoyl)-3,4-dihydroisoquinolin-2(1H)-yl)thiazole-4-carboxylic acid], in experiment [1], the inhibition constant (Ki) is 0.487 nM. Further, in experiment [2], the IC50 amounted to 3800 nM.
The like results for `O=C(O)c1csc(N2CCc3cccc(C(=O)Nc4nc5ccccc5s4)c3C2)n1` [Example 1, 2-(8-(Benzo[d]thiazol-2-ylcarbamoyl)-3,4-dihydroisoquinolin-2(1H)-yl)thiazole-4-carboxylic acid] were, in that order, 77 nM and 100 nM.
The like results for `O=C(Nc1nc2ccccc2s1)c1cccc2c1CN(c1nc(C(=O)O)c(CCCSc3ccncc3)s1)CC2` [Example 3, 2-(8-(benzo[d]thiazol-2-ylcarbamoyl)-3,4-dihydroisoquinolin-2(1H)-yl)-5-(3-(pyridin-4-ylthio)propyl)thiazole-4-carboxylic acid] were, in that order, 0.2 nM and 1 nM.
For the compound `CC(C)(C)OC(=O)Nc1ccc(OCCCc2sc(N3CCc4cccc(C(=O)Nc5nc6ccccc6s5)c4C3)nc2C(=O)O)cc1` [Example 4, 2-(8-(benzo[d]thiazol-2-ylcarbamoyl)-3,4-dihydroisoquinolin-2(1H)-yl)-5-(3-(4-(tert-butoxycarbonylamino)phenoxy)propyl)thiazole-4-carboxylic acid], in experiment [1], the Ki is 0.3 nM. In addition, in experiment [2], the IC50 amounted to 0.8 nM.
With `CC(C)(C)OC(=O)Nc1cccc(OCCCc2sc(N3CCc4cccc(C(=O)Nc5nc6ccccc6s5)c4C3)nc2C(=O)O)c1` [Example 5, 2-(8-(benzo[d]thiazol-2-ylcarbamoyl)-3,4-dihydroisoquinolin-2(1H)-yl)-5-(3-(3-(tert-butoxycarbonylamino)phenoxy)propyl)thiazole-4-carboxylic acid], the Ki in experiment [1] is 1 nM. Moreover, in experiment [2], the IC50 is 2 nM.
Take `Nc1ccc(OCCCc2sc(N3CCc4cccc(C(=O)Nc5nc6ccccc6s5)c4C3)nc2C(=O)O)cc1` [Example 6, 5-(3-(4-aminophenoxy)propyl)-2-(8-(benzo[d]thiazol-2-ylcarbamoyl)-3,4-dihydroisoquinolin-2(1H)-yl)thiazole-4-carboxylic acid]: the inhibitory constant (Ki) in experiment [1] turned out to be 0.2 nM. In addition, the IC50 in experiment [2] was found to be 2 nM.
For `O=C(Nc1nc2ccccc2s1)c1cccc2c1CN(c1nc(C(=O)O)c(CCCn3cccn3)s1)CC2` [Example 7, 5-(3-(1H-pyrazol-1-yl)propyl)-2-(8-(benzo[d]thiazol-2-ylcarbamoyl)-3,4-dihydroisoquinolin-2(1H)-yl)thiazole-4-carboxylic acid], the Ki in experiment [1] is 7 nM. Also, in experiment [2], the IC50 worked out at 25 nM.
On to `Nc1cccc(OCCCc2sc(N3CCc4cccc(C(=O)Nc5nc6ccccc6s5)c4C3)nc2C(=O)O)c1` [Example 9, 5-(3-(3-aminophenoxy)propyl)-2-(8-(benzo[d]thiazol-2-ylcarbamoyl)-3,4-dihydroisoquinolin-2(1H)-yl)thiazole-4-carboxylic acid], for which the inhibition constant (Ki) in experiment [1] worked out at 0.07 nM. Further, the IC50 in experiment [2] is 0.8 nM.
As to `O=C(Nc1nc2ccccc2s1)c1cccc2c1CN(c1nc(C(=O)O)c(CCCOc3ccncc3)s1)CC2` [Example 10, 2-(8-(benzo[d]thiazol-2-ylcarbamoyl)-3,4-dihydroisoquinolin-2(1H)-yl)-5-(3-(pyridin-4-yloxy)propyl)thiazole-4-carboxylic acid], in experiment [1], the inhibition constant Ki is 0.1 nM. In addition, the 50% inhibitory concentration (IC50) in experiment [2] is 1 nM.
As to `CN(C)c1cccc(OCCCc2sc(N3CCc4cccc(C(=O)Nc5nc6ccccc6s5)c4C3)nc2C(=O)O)c1` [Example 11, 2-(8-(benzo[d]thiazol-2-ylcarbamoyl)-3,4-dihydroisoquinolin-2(1H)-yl)-5-(3-(3-(dimethylamino)phenoxy)propyl)thiazole-4-carboxylic acid], the Ki in experiment [1] was 0.1 nM. Moreover, the IC50 in experiment [2] turned out to be 2 nM.
The like results for `O=C(Nc1nc2ccccc2s1)c1cccc2c1CN(c1nc(C(=O)O)c(C#CCO)s1)CC2` [Example 14, 2-(8-(Benzo[d]thiazol-2-ylcarbamoyl)-3,4-dihydroisoquinolin-2(1H)-yl)-5-(3-hydroxyprop-1-ynyl)thiazole-4-carboxylic acid] were, in that order, 6 nM and 20 nM.
The like results for `O=C(Nc1nc2ccccc2s1)c1cccc2c1CN(c1nc(C(=O)O)c(CCCn3cnc4ccccc43)s1)CC2` [Example 15, 5-(3-(1H-benzo[d]imidazol-1-yl)propyl)-2-(8-(benzo[d]thiazol-2-ylcarbamoyl)-3,4-dihydroisoquinolin-2(1H)-yl)thiazole-4-carboxylic acid] were, in that order, 3 nM and 10 nM.
As to `O=C(Nc1nc2ccccc2s1)c1cccc2c1CN(c1nc(C(=O)O)c(CCCn3ccnc3)s1)CC2` [Example 16, 5-(3-(1H-imidazol-1-yl)propyl)-2-(8-(benzo[d]thiazol-2-ylcarbamoyl)-3,4-dihydroisoquinolin-2(1H)-yl)thiazole-4-carboxylic acid], the Ki in experiment [1] was 6 nM. Moreover, the IC50 in experiment [2] turned out to be 10 nM.
For `O=C(Nc1nc2ccccc2s1)c1cccc2c1CN(c1nc(C(=O)O)c(CCCn3ccc4cccnc43)s1)CC2` [Example 17, 5-(3-(1H-pyrrolo[2,3-b]pyridin-1-yl)propyl)-2-(8-(benzo[d]thiazol-2-ylcarbamoyl)-3,4-dihydroisoquinolin-2(1H)-yl)thiazole-4-carboxylic acid], the Ki in experiment [1] came to 4 nM. For the same compound, the IC50 in experiment [2] stood at 20 nM.
The like results for `O=C(Nc1nc2ccccc2s1)c1cccc2c1CN(c1nc(C(=O)O)c(CCCN3CCCC3)s1)CC2` [Example 18, 2-(8-(benzo[d]thiazol-2-ylcarbamoyl)-3,4-dihydroisoquinolin-2(1H)-yl)-5-(3-(pyrrolidin-1-yl)propyl)thiazole-4-carboxylic acid] were, in that order, 4 nM and 6 nM.
Regarding `O=C(Nc1nc2ccccc2s1)c1cccc2c1CN(c1nc(C(=O)O)c(CCCN3CCCCC3)s1)CC2` [Example 20, 2-(8-(benzo[d]thiazol-2-ylcarbamoyl)-3,4-dihydroisoquinolin-2(1H)-yl)-5-(3-(piperidin-1-yl)propyl)thiazole-4-carboxylic acid], the Ki in experiment [1] was 3 nM. In addition, in experiment [2], the IC50 was found to be 8 nM.
The like results for `O=C(Nc1nc2ccccc2s1)c1cccc2c1CN(c1nc(C(=O)O)c(CCCOc3ccc(-n4ncc5cncnc54)cc3)s1)CC2` [Example 21, 5-(3-(4-(1H-pyrazolo[3,4-d]pyrimidin-1-yl)phenoxy)propyl)-2-(8-(benzo[d]thiazol-2-ylcarbamoyl)-3,4-dihydroisoquinolin-2(1H)-yl)thiazole-4-carboxylic acid] were, in that order, 0.05 nM and 0.3 nM.
Consider `CC1(C)[C@H]2CC[C@]1(C)C(Oc1ccccc1OCCCc1sc(N3CCc4cccc(C(=O)Nc5nc6ccccc6s5)c4C3)nc1C(=O)O)C2` (stereo partly drawn) [Example 22, 2-(8-(benzo[d]thiazol-2-ylcarbamoyl)-3,4-dihydroisoquinolin-2(1H)-yl)-5-(3-(2-((1S,4S)-1,7,7-trimethylbicyclo[2.2.1]heptan-2-yloxy)phenoxy)propyl)thiazole-4-carboxylic acid], for which, in experiment [1], the Ki worked out at 19 nM. For the same compound, the IC50 in experiment [2] worked out at 50 nM.
The like results for `O=C(Nc1nc2ccccc2s1)c1cccc2c1CN(c1nc(C(=O)O)c(CCCOc3ccc4nc(N5CCN(c6ccccn6)CC5)sc4c3)s1)CC2` [Example 23, 2-(8-(benzo[d]thiazol-2-ylcarbamoyl)-3,4-dihydroisoquinolin-2(1H)-yl)-5-(3-(2-(4-(pyridin-2-yl)piperazin-1-yl)benzo[d]thiazol-6-yloxy)propyl)thiazole-4-carboxylic acid] were, in that order, 2 nM and 1 nM.
